{"source": "patent US20050187239A1", "about": "(priority 2002, published 2005)", "tested_on": "Male CD-1 mice", "conditions": "mouse, in vivo"}
{"compound": "CN1CC[C@]23c4c5ccc(O)c4O[C@H]2C(=O)CC[C@@]3(O)[C@H]1C5", "note": "[oxymorphone]", "values": [{"measurement": "interaction with a fixed dose of L-methadone (FIG. 1A)", "setting": "sc", "result": "additive interactions"}]}
{"compound": "CN1CC[C@]23c4c5ccc(O)c4O[C@H]2[C@@H](O[C@@H]2O[C@H](C(=O)O)[C@@H](O)[C@H](O)[C@H]2O)C=C[C@H]3[C@H]1C5", "note": "[M6G, morphine-6β-glucuronide]", "values": [{"measurement": "ED50 Value, Combination (Total Drug Dose), Additive (predicted)", "result": "2.80 ± 0.21", "unit": "mg/kg s.c."}, {"measurement": "ED50 Value, Combination (Total Drug Dose), Observed", "result": "1.03 ± 0.34", "unit": "mg/kg s.c."}, {"measurement": "ED50 Value, Drug alone", "result": "3.7 ± 0.4", "unit": "mg/kg s.c."}, {"measurement": "isobolographic analysis: combination with methadone versus composite additive line (FIG. 3)", "result": "significantly greater than the composite additive line"}, {"measurement": "interaction with a fixed dose of L-methadone (FIG. 1A)", "setting": "sc", "result": "greater than the sum of their independent actions"}]}
{"compound": "CCOC(=O)C1(c2ccccc2)CCN(C)CC1", "note": "[meperidine]", "values": [{"measurement": "interaction with a fixed dose of L-methadone (FIG. 1A)", "setting": "sc", "result": "additive interactions"}]}
{"compound": "COc1ccc2c3c1O[C@H]1[C@@H](O)C=C[C@H]4[C@@H](C2)N(C)CC[C@@]341", "note": "[Codeine, codeine]", "values": [{"measurement": "ED50 Value, Combination (Total Drug Dose), Additive (predicted)", "result": "2.79 ± 0.22", "unit": "mg/kg s.c."}, {"measurement": "ED50 Value, Combination (Total Drug Dose), Observed", "result": "0.74 ± 0.10", "unit": "mg/kg s.c."}, {"measurement": "ED50 Value, Drug alone", "result": "3.7 ± 0.4", "unit": "mg/kg s.c."}, {"measurement": "isobolographic analysis: combination with methadone versus composite additive line (FIG. 3)", "result": "significantly greater than the composite additive line"}, {"measurement": "interaction with a fixed dose of L-methadone (FIG. 1A)", "setting": "sc", "result": "greater than additive responses"}]}
{"compound": "COc1ccc2c3c1O[C@H]1C(=O)CC[C@@]4(O)[C@@H](C2)N(C)CC[C@]314", "note": "[oxycodone]", "values": [{"measurement": "interaction with a fixed dose of L-methadone (FIG. 1A)", "setting": "sc", "result": "additive interactions"}]}
{"compound": "CN1CC[C@]23c4c5ccc(O)c4O[C@H]2[C@@H](O)C=C[C@H]3[C@H]1C5", "note": "[Morphine, morphine]", "values": [{"measurement": "ED50 Value, Combination (Total Drug Dose), Additive (predicted)", "result": "3.11 ± 0.32", "unit": "mg/kg s.c."}, {"measurement": "ED50 Value, Combination (Total Drug Dose), Observed", "result": "0.83 ± 0.12", "unit": "mg/kg s.c."}, {"measurement": "ED50 Value, Drug alone", "result": "4.7 ± 1.1", "unit": "mg/kg s.c."}, {"measurement": "analgesic activity of the combination versus additivity (FIG. 4)", "result": "significantly greater than additive"}, {"measurement": "isobolographic analysis: combination with methadone versus composite additive line (FIG. 3)", "result": "significant greater than the composite additive line"}, {"measurement": "interaction with a fixed dose of L-methadone (FIG. 1A)", "setting": "sc", "result": "greater than the sum of their independent actions"}]}
{"compound": "CCC(=O)C(C[C@@H](C)N(C)C)(c1ccccc1)c1ccccc1", "note": "[L-Methadone, L-methadone]", "values": [{"measurement": "ED50 Value, Drug alone", "result": "1.9 ± 0.2", "unit": "mg/kg s.c."}, {"measurement": "ED80 dose", "result": 4, "unit": "mg/kg s.c."}, {"measurement": "effect on morphine responses when given together (FIG. 2)", "result": "did reveal synergy"}, {"measurement": "interaction with morphine (FIG. 1B)", "setting": "sc", "result": "greater than additive interactions"}]}
{"compound": "CCC(=O)C(C[C@H](C)N(C)C)(c1ccccc1)c1ccccc1", "note": "[D-Methadone, D-methadone]", "values": [{"measurement": "ED50 Value, Drug alone", "result": ">>4 mg/kg s.c."}, {"measurement": "analgesic effect alone", "result": "did not show any effects alone"}, {"measurement": "effect on morphine responses when given together (FIG. 2)", "result": "did not influence morphine responses"}]}
